Assay results reported in patent US11192852B2, “Pyrazolyl and pyrimidinyl tricyclic enones as antioxidant inflammation modulators” (REATA PHARMACEUTICALS, INC., priority 2010, dated 2021).

System: IFNγ-induced NO production in RAW264.7 mouse macrophages
Assay: Suppression of IFNγ-induced nitric oxide production (Griess reagent)
Format: cell-based
Conditions: Mus musculus, RAW264.7, RAW264.7 cells, 2 h pre-treatment (0-200 nM), then IFNγ 24 h; normalized to cell viability
From the text: Nitric Oxide Production and Cell Viability.

Structure (SMILES) | IC50 [nM]
C[C@@H]1C(=O)C(C#N)=C[C@]2(C)c3n[nH]c(-c4ccccc4)c3CC[C@@H]12 [TX63836] | 6.1
COc1nc(OC)c2c(n1)[C@]1(C)C=C(C#N)C(=O)[C@H](C)[C@H]1CC2 [TX63794] | 88.5
Cn1nc2c(c1-c1cccc(Cl)c1)CC[C@H]1C(C)(C)C(=O)C(C#N)=C[C@]21C [TX63485] | 34
Cc1nc(N2CCOCC2)c2c(n1)[C@@]1(C)C=C(C#N)C(=O)[C@@H](C)[C@@H]1CC2 [TX63758] | 55
COc1nc(C)nc2c1CC[C@H]1[C@H](C)C(=O)C(C#N)=C[C@]21C [TX63646] | 8.5
COCO[C@H]1CCC[C@H]2C(C)(C)C(=O)C(C#N)=C[C@]12C [TX63364] | > 200
CC1(C)C(=O)C(C#N)=C[C@]2(C)c3c(cnc4c(Br)cnn34)CC[C@@H]12 [TX63615] | 52
CCOc1nc(OCC)c2c(n1)[C@@]1(C)C=C(C#N)C(=O)[C@@H](C)[C@@H]1CC2 [TX63736] | 9.8
CC1(C)C(=O)C(C#N)=C[C@]2(C)c3[nH]ncc3CC[C@@H]12 [TX63467] | > 200
COc1nc(C)nc2c1CC[C@H]1C(C)(C)C(=O)C(C#N)=C[C@]21C [TX63595] | 20
C[C@@H]1C(=O)C(C#N)=C[C@]2(C)c3nn(C)c(-c4cn(C)[n+]([O-])c4)c3CC[C@@H]12 [TX63849] | > 200
Cn1nc2c(c1-c1ccccc1)C(=O)C[C@H]1C(C)(C)C(=O)C=C[C@]21C [TX63804] | > 200
Cn1[nH]c2c(c1=O)CC[C@H]1C(C)(C)C(=O)C(C#N)=C[C@]21C [TX63676] | > 200
COc1ccccc1-c1nc(OC)c2c(n1)[C@@]1(C)C=C(C#N)C(=O)[C@@H](C)[C@@H]1CC2 [TX63727] | 11.5
CC1(C)C(=O)C(C#N)=C[C@]2(C)c3nc4c(Br)cnn4cc3CC[C@@H]12 [TX63617] | 33
Cn1nc2c(c1Br)CC[C@H]1C(C)(C)C(=O)C(C#N)=C[C@]21C [TX63445] | 37.9
COC(=O)n1cc2c(n1)[C@@]1(C)C=C(C#N)C(=O)C(C)(C)[C@@H]1CC2 [TX63462] | 147
Cn1nc2c(c1-c1ccccc1)CC[C@H]1C(Cc3ccccc3)(Cc3ccccc3)C(=O)C(C#N)=C[C@]21C [TX63601] | 150
Cc1noc(-c2c3c(nn2C)[C@@]2(C)C=C(C#N)C(=O)[C@@H](C)[C@@H]2CC3)n1 [TX63872] | 4.6
Cn1nc2c(c1-c1ccccc1Cl)CC[C@H]1C(C)(C)C(=O)C(C#N)=C[C@]21C [TX63491] | 35
CC[C@@H]1C(=O)C(C#N)=C[C@]2(C)c3nn(C)cc3CC[C@@H]12 [TX63589] | 44
CC1(C)C(=O)C(C#N)=C[C@]2(C)[C@@H](O)CCC[C@@H]12 [TX63363] | > 200
C[C@@H]1C(=O)C(C#N)=C[C@]2(C)c3nn(C)c(-c4ccncc4)c3CC[C@@H]12 [TX63720] | 4.9
COc1ccc(-c2c3c(nn2C)[C@@]2(C)C=C(C#N)C(=O)C(C)(C)[C@@H]2CC3)cc1 [TX63515] | 35
CC1(C)C(=O)C(C#N)=C[C@]2(C)c3nn(C(=O)c4ccccc4)cc3CC[C@@H]12 [TX63642] | 147
COc1c2c(nn1C)[C@@]1(C)C=C(C#N)C(=O)C(C)(C)[C@@H]1CC2 [TX63691] | 62

Structure (SMILES) | IC50 [nM]
Cn1cc2c(n1)[C@@]1(C)C=C(C#N)C(=O)C(C)(C)[C@@H]1C2 [TX63559] | > 200
Cn1nnc(-c2c3c(nn2C)[C@@]2(C)C=C(C#N)C(=O)C(C)(C)[C@@H]2CC3)n1 [TX63665] | 14
CNc1nc(C)nc2c1CC[C@H]1[C@H](C)C(=O)C(C#N)=C[C@]21C [TX63852] | 30
Cc1nc(N(C)C)c2c(n1)[C@@]1(C)C=C(C#N)C(=O)[C@@H](C)[C@@H]1CC2 [TX63774] | 26.7
Cn1nc2c(c1C#N)CC[C@H]1C(C)(C)C(=O)C(C#N)=C[C@]21C [TX63613] | 101
C[C@@H]1C(=O)C(C#N)=C[C@]2(C)c3nn(C)c(C(=O)N(C)C)c3CC[C@@H]12 [TX63655] | > 200
Cn1nc2c(c1-c1ccc3ccccc3c1)CC[C@H]1C(C)(C)C(=O)C(C#N)=C[C@]21C [TX63600] | 59
C[C@@H]1C(=O)C(C#N)=C[C@]2(C)c3nn(C)cc3CC[C@@H]12 [TX63551] | 49
Cn1nc2c(c1-c1cccc3ccccc13)CC[C@H]1C(C)(C)C(=O)C(C#N)=C[C@]21C [TX63603] | 61
CC1=C2CCc3c(nn(C)c3-c3cccc(C)c3)[C@@]2(C)C=C(C#N)C1=O [TX63656] | > 200
COc1nc(C2CC2)nc2c1CC[C@H]1[C@H](C)C(=O)C(C#N)=C[C@]21C [TX63761] | 8.9
CCOC(=O)c1nc(OC)c2c(n1)[C@@]1(C)C=C(C#N)C(=O)[C@@H](C)[C@@H]1CC2 [TX63730] | 16
CCCCNc1nc(C)nc2c1CC[C@H]1[C@H](C)C(=O)C(C#N)=C[C@]21C [TX63827] | 59
Cn1nc2c(c1C(N)=O)CC[C@H]1C(C)(C)C(=O)C(C#N)=C[C@]21C [TX63619] | > 200
Cc1noc(C)c1-c1c2c(nn1C)[C@@]1(C)C=C(C#N)C(=O)C(C)(C)[C@@H]1CC2 [TX63625] | 77
COc1nc(-c2cncnc2)nc2c1CC[C@H]1[C@H](C)C(=O)C(C#N)=C[C@]21C [TX63757] | 4.3
C[C@@H]1C(=O)C(C#N)=C[C@]2(C)c3nc(-c4ccccc4)n(C)c(=O)c3CC[C@@H]12 [TX63666] | 25
C[C@@H]1C(=O)C(C#N)=C[C@]2(C)c3nn(C)cc3C[C@@H]12 [TX63533] | > 200
CC1(C)C(=O)C(C#N)=C[C@]2(C)c3nc(-c4ccccc4Cl)ncc3CC[C@@H]12 [TX63612] | 43
C[C@@H]1C(=O)[C@]2(C#N)O[C@@H]2[C@]2(C)c3nn(C)c(-c4ccccc4)c3CC[C@@H]12 [TX63848] | 9.5
CCOc1nc(C(C)(C)C)nc2c1CC[C@H]1[C@H](C)C(=O)C(C#N)=C[C@]21C [TX63900] | 40
COc1ncc2c(n1)[C@@]1(C)C=C(C#N)C(=O)C(C)(C)[C@@H]1CC2 [TX63528] | 85
Cn1nc2c(c1NC(=O)OC(C)(C)C)CC[C@H]1C(C)(C)C(=O)C(C#N)=C[C@]21C [TX63594] | > 200
C[C@@H]1C(=O)C(C#N)=C[C@]2(C)c3nn(C)c(-c4ccccc4)c3CC[C@@H]12 [TX63791] | 2.3
Cn1nc2c(c1-c1ccc(F)cc1)CC[C@H]1C(C)(C)C(=O)C(C#N)=C[C@]21C [TX63507] | 39
Cn1nc2c(c1-c1ccccc1)CC[C@H]1C3(CCCC3)C(=O)C(C#N)=C[C@]21C [TX63504] | 20

Structure (SMILES) | IC50 [nM]
CC1(C)C(=O)C(C#N)=C[C@]2(C)c3nn(-c4ccccc4)cc3CC[C@@H]12 [TX63455] | 109
CC1(C)C(=O)C(C#N)=C[C@]2(C)c3ncncc3CC[C@@H]12 [TX63542] | 55
C#Cc1c2c(nn1C)[C@@]1(C)C=C(C#N)C(=O)C(C)(C)[C@@H]1CC2 [TX63651] | 23
CC1(C)C(=O)C(C#N)=C[C@]2(C)c3nn(-c4ccccc4)c(-c4ccccc4)c3CC[C@@H]12 [TX63544] | 39
CC1(C)C(=O)C(C#N)=C[C@]2(C)c3nc(-c4ccc(Cl)cc4)ncc3CC[C@@H]12 [TX63582] | 33
Cc1nnc(-c2c3c(nn2C)[C@@]2(C)C=C(C#N)C(=O)[C@@H](C)[C@@H]2CC3)o1 [TX63857] | 6.3
CCOC(=O)n1nc2c(c1-c1ccccc1)CC[C@H]1[C@H](C)C(=O)C(C#N)=C[C@]21C [TX63871] | 7.5
Cn1nc2c(c1-c1ccccc1)CC[C@H]1C(C)(C)C(=O)C(C(F)(F)F)=C[C@]21C [TX63803] | 50
Cc1nnc(-c2c3c(nn2C)[C@@]2(C)C=C(C#N)C(=O)C(C)(C)[C@@H]2CC3)o1 [TX63735] | 15.6
CC(C)n1cnc(-c2c3c(nn2C)[C@@]2(C)C=C(C#N)C(=O)C(C)(C)[C@@H]2CC3)n1 [TX63905] | 129
COc1nc(C(C)(C)C)nc2c1CC[C@H]1[C@H](C)C(=O)C(C#N)=C[C@]21C [TX63853] | 31
CCOC(=O)c1c2c(nn1C)[C@@]1(C)C=C(C#N)C(=O)C(C)(C)[C@@H]1CC2 [TX63630] | 38
C[C@@H]1C(=O)C(C#N)=C[C@]2(C)c3nn(C)c(-c4ccccc4F)c3CC[C@@H]12 [TX63721] | 7.8
Cn1nc2c(c1-c1ccc(Cl)cc1)CC[C@H]1C(C)(C)C(=O)C(C#N)=C[C@]21C [TX63486] | 48
C[C@@H]1C(=O)C(C#N)=C[C@]2(C)c3nn(C)c(-c4cccnc4)c3CC[C@@H]12 [TX63722] | 8.3
Cn1nc2c(c1-c1ccccc1)CC[C@H]1[C@H](c3ccccc3)C(=O)C(C#N)=C[C@]21C [TX63629] | 137
CC1(C)C(=O)C(C#N)=C[C@]2(C)c3c(cnc4ccnn34)CC[C@@H]12 [TX63627] | 38
CC1(C)C(=O)C(C#N)=C[C@]2(C)c3nn(CC(F)(F)F)cc3CC[C@@H]12 [TX63454] | 134
COc1ncnc2c1CC[C@H]1[C@H](C)C(=O)C(C#N)=C[C@]21C [TX63874] | 5.5
CC(C)c1ncc2c(n1)[C@@]1(C)C=C(C#N)C(=O)C(C)(C)[C@@H]1CC2 [TX63534] | 49
C[C@@H]1C(=O)C(C#N)=C[C@]2(C)c3nn(C)c(C#N)c3CC[C@@H]12 [TX63725] | 24
Cn1nc2c(c1-c1ccccc1)CCC1=CC(=O)C=C[C@@]12C [TX63578] | > 200
Cn1nc2c(c1-c1ccc(Oc3ccccc3)cc1)CC[C@H]1C(C)(C)C(=O)C(C#N)=C[C@]21C [TX63587] | 40
Cn1cc2c(n1)[C@@]1(C)C=C(C#N)C(=O)C3(CCCC3)[C@@H]1CC2 [TX63487] | 85

Same assay, conditions: RAW264.7 cells, 2 h pre-treatment (0-200 nM), then IFNγ 24 h; normalized to cell viability

Structure (SMILES) | IC50 [nM]
COc1nc(OC)c2c(n1)[C@@]1(C)C=C(C#N)C(=O)[C@@H](C)[C@@H]1CC2 [TX63718] | 6
